Reference: patent publication US12617837B2, “Composition for use in treatment of allergic diseases” (UNIVERSITY OF TSUKUBA, priority 2019, dated 2026)

What was measured:
Assay type in all cases: binding
human IgG1 = assay: Glycan microarray probed with human IgG1 (control of Table 7)
Clec10a-Fc = biological target: T1, Clec10a-Fc (Mus musculus, UniProt P49300); assay: Sugar conjugate (glycan) microarray analysis of Clec10a-Fc (Table 7); settings: for Signal value, Clec10a-Fc: glycan microarray probed with Clec10a-Fc; for Signal value, Clec10a-Fc with EDTA: glycan microarray probed with Clec10a-Fc with EDTA
T1 construct: cloning the extracellular region of mouse Clec10a into a pME18S expression vector; made in house; host or cells: HEK293T cells
T1 sequence (P49300 57-304 limits assumed): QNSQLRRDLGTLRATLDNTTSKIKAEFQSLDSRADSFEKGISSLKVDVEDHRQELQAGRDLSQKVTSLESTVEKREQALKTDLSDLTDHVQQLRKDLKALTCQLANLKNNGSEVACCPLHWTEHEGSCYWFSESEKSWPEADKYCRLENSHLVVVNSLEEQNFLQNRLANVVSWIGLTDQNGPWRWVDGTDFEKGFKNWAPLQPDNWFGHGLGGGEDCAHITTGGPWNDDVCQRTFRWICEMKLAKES
Protocol: A sugar conjugate microarray containing 98 sugar conjugates (Table 3) was prepared according to a known method using a non-contact microarray printing robot (MicroSys 4000; Genomic Solutions).

[1] = system: lectins (96 lectins of Table 2); assay: Lectin microarray analysis of Clec10a ligand in HDM (Table 6); settings: for Signal value, Target: Target: Pull-down assay sample from HDM using Clec10a-Fc (Clec10a ligand), signal at each lectin spot of the lectin microarray
Protocol: Lectin microarrays were made using a non-contact microarray printing robot (MicroSys4000; Genomic Solutions) according to the previous method. Samples were fluorescently labeled with Cy3 Mono-Reactive dye (Ge) and excess Cy3 was removed using a Sephadex g-25 desalting column (Ge). After 10 fold dilution with a probe solution (25 mM Tris-HCl, pH 7.5, 140 mM NaCl) (TBS) containing 2.7 mM KCl, 1 mM CaCl2, 1 mM MnCl2, and 1% Triton X-100, a Cy3-labeled sample was applied to a lectin microarray and incubated at 20° C. overnight. The sample was washed with a probe solution, and a fluorescence image was obtained using an evanescent-field activated fluorescence scanner (Bio-Rad scan 200, Rexxam Co. Ltd.). Lectin signals in triplicate spots were averaged for each protein sample and normalized to an average value of 96 lectins.

## CC(=O)N[C@@H]1[C@@H](O[C@@H]2O[C@H](CO)[C@H](O)[C@H](O)[C@H]2O)[C@H](O)[C@@H](CO)O[C@H]1O [Lec]
Human IgG1
  Signal value, human IgG1: 0
Clec10a-Fc
  Signal value, Clec10a-Fc: 2414
  Signal value, Clec10a-Fc with EDTA: 0

## OC[C@H]1O[C@H](O[C@H]2[C@H](O)[C@@H](O)[C@H](O)O[C@@H]2CO)[C@H](O)[C@@H](O)[C@@H]1O [Maltose]
Human IgG1
  Signal value, human IgG1: 0
Clec10a-Fc
  Signal value, Clec10a-Fc: 0
  Signal value, Clec10a-Fc with EDTA: 1

## OC[C@H]1O[C@H](OCC2O[C@@H](O)[C@H](O)[C@@H](O)[C@@H]2O)[C@H](O)[C@@H](O)[C@H]1O (some centres unmarked) [Melibiose]
Human IgG1
  Signal value, human IgG1: 0
Clec10a-Fc
  Signal value, Clec10a-Fc: 45
  Signal value, Clec10a-Fc with EDTA: 0

## CC(=O)N[C@H]1[C@H]([C@H](O)[C@H](O)CO)O[C@@](O)(C(=O)O)C[C@@H]1O [Ne̊u5Ac]
Human IgG1
  Signal value, human IgG1: 0
Clec10a-Fc
  Signal value, Clec10a-Fc: 0
  Signal value, Clec10a-Fc with EDTA: 0

## O=C(CO)N[C@H]1[C@H]([C@H](O)[C@H](O)CO)O[C@@](O)(C(=O)O)C[C@@H]1O [Ne̊u5Gc]
Human IgG1
  Signal value, human IgG1: 0
Clec10a-Fc
  Signal value, Clec10a-Fc: 0
  Signal value, Clec10a-Fc with EDTA: 0

## CC(=O)N[C@H]1[C@H]([C@H](O)[C@H](O)CO)O[C@@](O[C@H](CO)[C@@H](O)[C@@H]2O[C@@](O[C@H](CO)[C@@H](O)[C@@H]3O[C@@](O)(C(=O)O)C[C@H](O)[C@H]3NC(C)=O)(C(=O)O)C[C@H](O)[C@H]2NC(C)=O)(C(=O)O)C[C@@H]1O [Sia3]
Human IgG1
  Signal value, human IgG1: 0
Clec10a-Fc
  Signal value, Clec10a-Fc: 19
  Signal value, Clec10a-Fc with EDTA: 3

## CC(=O)N[C@@H]1[C@@H](O[C@@H]2O[C@H](CO)[C@H](O)[C@H](O)[C@H]2O)[C@@H](O)[C@@H](CO[C@]2(C(=O)O)C[C@H](O)[C@@H](NC(C)=O)[C@H]([C@H](O)[C@H](O)CO)O2)O[C@@H]1O [Siaα2-6Core 1]
Human IgG1
  Signal value, human IgG1: 0
Clec10a-Fc
  Signal value, Clec10a-Fc: 0
  Signal value, Clec10a-Fc with EDTA: 0

## CC(=O)N[C@H]1[C@H]([C@H](O)[C@H](O)CO)O[C@@](O[C@H](CO)[C@@H](O)[C@@H]2O[C@@](O)(C(=O)O)C[C@H](O)[C@H]2NC(C)=O)(C(=O)O)C[C@@H]1O [Siα2]
Human IgG1
  Signal value, human IgG1: 0
Clec10a-Fc
  Signal value, Clec10a-Fc: 0
  Signal value, Clec10a-Fc with EDTA: 0

## CC(=O)N[C@@H]1[C@@H](O[C@@H]2O[C@H](CO)[C@H](O)[C@H](O)[C@H]2O)[C@@H](O)[C@@H](CO)O[C@@H]1O [T (Core1)]
Human IgG1
  Signal value, human IgG1: 0
Clec10a-Fc
  Signal value, Clec10a-Fc: 2504
  Signal value, Clec10a-Fc with EDTA: 0

## O=S(=O)(O)O[C@@H]1[C@@H](O)[C@H](O)O[C@H](CO)[C@@H]1O [[3S] βGal]
Human IgG1
  Signal value, human IgG1: 0
Clec10a-Fc
  Signal value, Clec10a-Fc: 3
  Signal value, Clec10a-Fc with EDTA: 0

## CC(=O)N[C@@H]1[C@@H](O[C@@H]2O[C@H](CO)[C@H](O)[C@H](OS(=O)(=O)O)[C@H]2O)[C@H](O[C@@H]2O[C@@H](C)[C@@H](O)[C@@H](O)[C@@H]2O)[C@@H](CO)O[C@H]1O [[3S]Lea]
Human IgG1
  Signal value, human IgG1: 0
Clec10a-Fc
  Signal value, Clec10a-Fc: 0
  Signal value, Clec10a-Fc with EDTA: 0

## CC(=O)N[C@@H]1[C@@H](O)[C@H](O[C@@H]2O[C@H](CO)[C@H](O)[C@H](O[C@]3(C(=O)O)C[C@H](O)[C@@H](NC(C)=O)[C@H]([C@H](O)[C@H](O)CO)O3)[C@H]2O)[C@@H](CO)O[C@H]1O [[3′S]LN]
Human IgG1
  Signal value, human IgG1: 0
Clec10a-Fc
  Signal value, Clec10a-Fc: 0
  Signal value, Clec10a-Fc with EDTA: 0

## CC(=O)N[C@@H]1[C@@H](O[C@@H]2O[C@H](CO)[C@H](O)[C@H](OS(=O)(=O)O)[C@H]2O)[C@H](O)[C@@H](CO)O[C@H]1O [[3′S]Lec]
Human IgG1
  Signal value, human IgG1: 0
Clec10a-Fc
  Signal value, Clec10a-Fc: 0
  Signal value, Clec10a-Fc with EDTA: 0

## O=P(O)(O)OC[C@H]1O[C@H](O)[C@@H](O)[C@@H](O)[C@@H]1O [[6P]Man]
Human IgG1
  Signal value, human IgG1: 0
Clec10a-Fc
  Signal value, Clec10a-Fc: 0
  Signal value, Clec10a-Fc with EDTA: 0

## CC(=O)N[C@@H]1[C@@H](O)[C@H](O)[C@@H](COS(=O)(=O)O)O[C@H]1O [[6S]BGlcNAc]
Human IgG1
  Signal value, human IgG1: 318
Clec10a-Fc
  Signal value, Clec10a-Fc: 0
  Signal value, Clec10a-Fc with EDTA: 0

## CC(=O)N[C@@H]1[C@@H](O)[C@H](O[C@@H]2O[C@H](CO)[C@H](O)[C@H](O)[C@H]2O)[C@@H](COS(=O)(=O)O)O[C@H]1O [[6S]LN]
Human IgG1
  Signal value, human IgG1: 0
Clec10a-Fc
  Signal value, Clec10a-Fc: 0
  Signal value, Clec10a-Fc with EDTA: 0

## CC(=O)N[C@@H]1[C@@H](O)[C@H](O[C@@H]2O[C@H](COS(=O)(=O)O)[C@H](O)[C@H](O)[C@H]2O)[C@@H](CO)O[C@H]1O [[6′S]LN]
Human IgG1
  Signal value, human IgG1: 0
Clec10a-Fc
  Signal value, Clec10a-Fc: 0
  Signal value, Clec10a-Fc with EDTA: 0

## CC(=O)N[C@@H]1[C@@H](O[C@@H]2O[C@H](CO)[C@H](O)[C@H](O)[C@H]2NC(C)=O)[C@@H](O)[C@@H](CO)O[C@H]1O [di-GalNAcβ]
Human IgG1
  Signal value, human IgG1: 0
Clec10a-Fc
  Signal value, Clec10a-Fc: 65
  Signal value, Clec10a-Fc with EDTA: 0

## CC(=O)N[C@@H]1[C@@H](O[C@@H]2O[C@H](CO)[C@H](O)[C@H](O[C@]3(C(=O)O)C[C@H](O)[C@@H](NC(C)=O)[C@H]([C@H](O)[C@H](O)CO)O3)[C@H]2O)[C@H](O[C@@H]2O[C@@H](C)[C@@H](O)[C@@H](O)[C@@H]2O)[C@@H](CO)O[C@H]1O [sLea]
Human IgG1
  Signal value, human IgG1: 0
Clec10a-Fc
  Signal value, Clec10a-Fc: 0
  Signal value, Clec10a-Fc with EDTA: 0

## CC(=O)N[C@@H]1[C@@H](O[C@@H]2O[C@@H](C)[C@@H](O)[C@@H](O)[C@@H]2O)[C@H](O[C@@H]2O[C@H](CO)[C@H](O)[C@H](O[C@]3(C(=O)O)C[C@H](O)[C@@H](NC(C)=O)[C@H]([C@H](O)[C@H](O)CO)O3)[C@H]2O)[C@@H](CO)O[C@H]1O [sLex]
Human IgG1
  Signal value, human IgG1: 0
Clec10a-Fc
  Signal value, Clec10a-Fc: 1
  Signal value, Clec10a-Fc with EDTA: 0

## OC[C@H]1O[C@H](O)[C@@H](O)[C@@H](O)[C@@H]1O [αMan]
Human IgG1
  Signal value, human IgG1: 0
Clec10a-Fc
  Signal value, Clec10a-Fc: 0
  Signal value, Clec10a-Fc with EDTA: 0

## CC(=O)N[C@@H]1[C@@H](O)[C@@H](O)[C@@H](CO)O[C@H]1O [βGalNAc]
Human IgG1
  Signal value, human IgG1: 0
Clec10a-Fc
  Signal value, Clec10a-Fc: 6
  Signal value, Clec10a-Fc with EDTA: 0

## OC[C@H]1O[C@@H](O)[C@H](O)[C@@H](O)[C@H]1O [βGal]
Human IgG1
  Signal value, human IgG1: 0
Clec10a-Fc
  Signal value, Clec10a-Fc: 1867
  Signal value, Clec10a-Fc with EDTA: 0

## OC[C@H]1O[C@@H](O)[C@@H](O)[C@@H](O)[C@@H]1O [βMan]
Human IgG1
  Signal value, human IgG1: 0
Clec10a-Fc
  Signal value, Clec10a-Fc: 0
  Signal value, Clec10a-Fc with EDTA: 0

## Chitobiose
Human IgG1
  Signal value, human IgG1: 0
Clec10a-Fc
  Signal value, Clec10a-Fc: 0
  Signal value, Clec10a-Fc with EDTA: 0

## Clec10a
[1]; Cy3-labeled sample
  Binding to lectins in lectin microarray: most strongly bound to the lectins of Maclura pomifera (MPA)

## PHAL
Human IgG1
  Signal value, human IgG1: 0
[1]
  Signal value, Target: 0
Clec10a-Fc
  Signal value, Clec10a-Fc: 0
  Signal value, Clec10a-Fc with EDTA: 0

## rGal7
Human IgG1
  Signal value, human IgG1: 0
[1]
  Signal value, Target: 0
Clec10a-Fc
  Signal value, Clec10a-Fc: 0
  Signal value, Clec10a-Fc with EDTA: 0

## rMalectin
Human IgG1
  Signal value, human IgG1: 0
[1]
  Signal value, Target: 0
Clec10a-Fc
  Signal value, Clec10a-Fc: 0
  Signal value, Clec10a-Fc with EDTA: 0

## αGalNAc [Tn antigen]
Human IgG1
  Signal value, human IgG1: 0
Clec10a-Fc; Clec10a-Fc 10 μg/mL
  Binding of Clec10a-Fc in glycan microarray: binds
Clec10a-Fc
  Signal value, Clec10a-Fc: 682
  Signal value, Clec10a-Fc with EDTA: 0

B1: PNA (protein, UniProt P02872 24-273, looked up)
Galactose-binding lectin: AETVSFNFNSFSEGNPAINFQGDVTVLSNGNIQLTNLNKVNSVGRVLYAMPVRIWSSATGNVASFLTSFSFEMKDIKDYDPADGIIFFIAPEDTQIPAGSIGGGTLGVSDTKGAGHFVGVEFDTYSNSEYNDPPTDHVGIDVNSVDSVKTVPWNSVSGAVVKVTVIYDSSTKTLSVAVTNDNGDITTIAQVVDLKAKLPERVKFGFSASGSLGGRQIHLIRSWSFTSTLITTTRRSIDNNEKKIMNMASA
[1]
  Signal value, Target: 10699

B2: AAL (protein, UniProt P18891 2-313, looked up)
Fucose-specific lectin: PTEFLYTSKIAAISWAATGGRQQRVYFQDLNGKIREAQRGGDNPWTGGSSQNVIGEAKLFSPLAAVTWKSAQGIQIRVYCVNKDNILSEFVYDGSKWITGQLGSVGVKVGSNSKLAALQWGGSESAPPNIRVYYQKSNGSGSSIHEYVWSGKWTAGASFGSTVPGTGIGATAIGPGRLRIYYQATDNKIREHCWDSNSWYVGGFSASASAGVSIAAISWGSTPNIRVYWQKGREELYEAAYGGSWNTPGQIKDASRPTPSLPDTFIAANSSGNIDISVFFQASGVSLQQWQWISGKGWSIGAVVPTGTPAGW
[1]
  Signal value, Target: 7508

B3: rPAIL (protein, UniProt Q05097 2-122, looked up)
PA-I galactophilic lectin: AWKGEVLANNEAGQVTSIIYNPGDVITIVAAGWASYGPTQKWGPQGDREHPDQGLICHDAFCGALVMKIGNSGTIPVNTGLFRWVAPNNVQGAITLIYNDVPGTYGNNSGSFSVNIGKDQS
Human IgG1
  Signal value, human IgG1: 0
[1]
  Signal value, Target: 0
Clec10a-Fc
  Signal value, Clec10a-Fc: 0
  Signal value, Clec10a-Fc with EDTA: 0
